The values below come from ChEMBL document CHEMBL1157099, “Proline-containing cyclopeptides from the marine sponge Phakellia fusca” (J Nat Prod, 2010).

Calls of active or inactive are those of the source. The rule behind the calls is not given here. Residues, ends and D or L forms follow the SMILES beside them.

The subject of test [1] is P388. In words: Cytotoxicity against mouse P388 cells after 48 hrs by MTT assay. The test is classed as functional, cell-based. To be noted: for IC50: P388, 48 h.
The test system of test [2] is Bel-7402. The test is described as follows: Cytotoxicity against human Bel7402 cells after 48 hrs by MTT assay. The test is classed as functional, cell-based.

For the molecule `CC[C@H](C)[C@@H]1NC(=O)[C@H](CC(C)C)NC(=O)[C@@H]2CCCN2C(=O)[C@H](C(C)C)NC(=O)[C@H](Cc2c[nH]c3ccccc23)NC(=O)[C@@H]2CCCN2C(=O)[C@H]([C@@H](C)CC)NC(=O)[C@@H]2CCCN2C1=O` (cyclo(IPIPWVPL)), the outcome in test [1] and in test [2] was inactive.

In test [1], `CC[C@H](C)[C@@H]1NC(=O)[C@H](Cc2c[nH]c3ccccc23)NC(=O)[C@@H]2CCCN2C(=O)[C@H](CC(C)C)NC(=O)[C@@H]2CCCN2C(=O)[C@H]([C@@H](C)O)NC(=O)[C@H](CC(C)C)NC(=O)[C@@H]2CCCN2C1=O` [PHAKELLISTATIN 15] (cyclo(IPLTPLPW)) yielded an IC50 of 8.5 µM.

As to `CC(C)[C@@H]1NC(=O)[C@H](C)NC(=O)[C@H](CCCNC(=N)N)NC(=O)[C@H](CO)NC(=O)[C@H](CC(=O)O)NC(=O)[C@H](Cc2ccccc2)NC(=O)[C@@H]2CCCN2C(=O)[C@H](Cc2ccc(O)cc2)NC(=O)[C@H]([C@@H](C)O)NC1=O` [PHAKELLISTATIN 16] (cyclo(AVTYPFDSR)), the IC50 in test [1] turned out to be 5.4 µM; in test [2] (Bel-7402, 48 h), 14.3 µM.
